Values quoted from earlier work in US9445992B2, “Mucosal delivery compositions comprising a peptide complexed with a crown compound and/or a counter ion” (ARISGEN SA, priority 2009, dated 2016).

Conditions: in water

**Q.** For `CCCCCCCCCCCC(=O)OC[C@H](COP(=O)(O)OCC(O)CO)OC(=O)CCCCCCCCCCC` (stereo partly shown) [DLPG, dilauryloylphosphatidylglycerol], which pKa is on record?
**A.** Its pKa is < 2.
